Tests used:
[1] = target: T1, human recombinant adrenergic α1D receptor (Homo sapiens, UniProt P25100); assay: Adrenergic α1D radioligand binding ([3H]Prozosin); conditions: 1 μM; for inhibition at 1 µM: read-out: Adrenergic α1D, inhibition of ligand binding (1 μM)
T1 construct: expressed in transfected cells; host or cells: HEK-293 cells
T1 sequence (P25100 1-572): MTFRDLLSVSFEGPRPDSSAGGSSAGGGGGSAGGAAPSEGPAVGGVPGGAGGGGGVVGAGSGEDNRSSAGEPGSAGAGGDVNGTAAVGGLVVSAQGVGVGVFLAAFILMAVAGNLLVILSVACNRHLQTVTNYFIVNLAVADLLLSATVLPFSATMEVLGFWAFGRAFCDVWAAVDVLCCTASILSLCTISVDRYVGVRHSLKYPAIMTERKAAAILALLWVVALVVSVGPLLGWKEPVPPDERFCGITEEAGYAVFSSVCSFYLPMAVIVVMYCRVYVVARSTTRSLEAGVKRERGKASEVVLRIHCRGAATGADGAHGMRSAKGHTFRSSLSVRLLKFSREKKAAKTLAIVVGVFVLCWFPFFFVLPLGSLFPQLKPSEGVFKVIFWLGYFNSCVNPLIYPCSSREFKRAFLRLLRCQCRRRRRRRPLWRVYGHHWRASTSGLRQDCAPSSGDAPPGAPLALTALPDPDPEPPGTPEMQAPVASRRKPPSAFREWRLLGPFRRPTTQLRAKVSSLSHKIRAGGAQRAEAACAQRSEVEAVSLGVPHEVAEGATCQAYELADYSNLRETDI
Description: To evaluate in radioligand binding assays the activity of compounds of the invention, human recombinant adrenergic α1D receptor expressed in human embryonic kidney (HEK-293) cells (Kenny, B. A. et al. Br. J. Pharmacol. 115(6):981, 1995) in a 50 mM Tris-HCl buffer, pH 7.4, was used. Compounds of invention were incubated with 0.6 nM [^3H]Prozosin for 60 minutes at 25° C. Non-specific binding was estimated in the presence of 10 μM phentolamine. Receptor proteins were filtered and washed, the filters were then counted to determine [^3H]Prozosin specifically bound. Compounds were screened at 1 μM or lower, using 1% DMSO as vehicle. Biochemical assay results are presented as the percent inhibition of specific binding in Table 3.

[2] = target: T2, human recombinant histamine H1 receptor (Homo sapiens, UniProt P35367); assay: Histamine H1 radioligand binding ([3H]Pyrilamine); conditions: compound at 1 μM, inhibition of specific [3H]Pyrilamine binding; for inhibition at 1 µM: read-out: Histamine Binding (1 μM) H1, Percentage Inhibition
T2 construct: expressed in transfected cells; host or cells: CHO cells
T2 sequence (P35367 whole entry): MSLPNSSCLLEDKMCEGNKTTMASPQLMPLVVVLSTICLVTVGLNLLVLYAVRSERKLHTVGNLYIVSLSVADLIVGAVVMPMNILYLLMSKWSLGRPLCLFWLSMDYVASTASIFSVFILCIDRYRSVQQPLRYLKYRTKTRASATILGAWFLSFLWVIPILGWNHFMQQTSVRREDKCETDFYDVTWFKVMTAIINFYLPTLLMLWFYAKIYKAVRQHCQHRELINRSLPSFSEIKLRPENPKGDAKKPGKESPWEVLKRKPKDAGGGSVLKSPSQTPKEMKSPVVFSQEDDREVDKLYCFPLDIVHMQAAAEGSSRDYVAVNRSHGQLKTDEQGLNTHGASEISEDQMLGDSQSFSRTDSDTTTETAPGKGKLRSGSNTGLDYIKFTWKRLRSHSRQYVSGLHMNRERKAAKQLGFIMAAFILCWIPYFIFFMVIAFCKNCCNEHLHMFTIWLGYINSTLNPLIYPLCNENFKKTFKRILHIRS
Description: To evaluate in radioligand binding assays the activity of compounds of the invention, human recombinant histamine H1 receptor expressed in Chinese hamster ovary (CHO) cells (De Backer, M. D. et al., Biochem. Biophys. Res. Comm. 197(3):1601, 1993) in a modified Tris-HCl buffer (50 mM Tris-HCl, pH 7.4, 2 mM MgCl2, 100 mM NaCl, 250 mM Sucrose) was used. Compounds of the invention were incubated with 1.2 nM [^3H]Pyrilamine for 180 minutes at 25° C. Non-specific binding was estimated in the presence of 1 μM pyrilamine. Receptor proteins were filtered and washed, the filters were then counted to determine [^3H]Pyrilamine specifically bound. Compounds were screened at 1 μM or lower, using 1% DMSO as vehicle. Biochemical assay results are presented as the percent inhibition of specific binding in Table 2.

[3] = target: T3, human recombinant adrenergic α2A receptor (Homo sapiens, UniProt P08913); assay: Adrenergic α2A radioligand binding ([3H]MK-912); conditions: 1 μM; for inhibition at 1 µM: read-out: Adrenergic α2A, inhibition of ligand binding (1 μM)
T3 construct: expressed in transfected cells; host or cells: insect Sf9 cells
T3 sequence (P08913 1-465): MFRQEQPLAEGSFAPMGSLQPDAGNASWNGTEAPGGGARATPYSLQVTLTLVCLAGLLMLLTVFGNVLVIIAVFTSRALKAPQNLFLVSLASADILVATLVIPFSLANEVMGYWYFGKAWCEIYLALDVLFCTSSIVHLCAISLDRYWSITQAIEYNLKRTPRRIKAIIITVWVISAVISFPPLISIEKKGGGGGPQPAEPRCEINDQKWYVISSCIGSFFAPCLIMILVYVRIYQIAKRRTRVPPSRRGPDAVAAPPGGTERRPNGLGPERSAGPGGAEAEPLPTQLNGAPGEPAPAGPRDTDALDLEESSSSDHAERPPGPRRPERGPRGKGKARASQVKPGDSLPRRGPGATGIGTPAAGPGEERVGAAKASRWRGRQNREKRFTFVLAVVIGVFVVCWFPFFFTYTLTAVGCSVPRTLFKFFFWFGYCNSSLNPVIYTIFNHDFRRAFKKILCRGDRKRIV
Description: To evaluate in radioligand binding assays the activity of compounds of the invention, human recombinant adrenergic α2A receptor expressed in insect Sf9 cells (Uhlen S et al. J Pharmacol Exp Ther. 271:1558, 1994) in a modified Tris-HCl buffer (50 mM Tris-HCl, pH 7.4, 12.5 mM MgCl2, 2 mM EDTA) was used. Compounds of invention were incubated with 1 nM [^3H]MK-912 for 60 minutes at 25° C. MK912 is (2S-trans)-1,3,4,5′,6,6′,7,12b-octahydro-1′,3′-dimethyl-spiro[2H-benzofuro[2,3-a]quinolizine-2,4′(1′H) -pyrimidin]-2′(3′H)-one hydrochloride Non-specific binding was estimated in the presence of 10 μM WB-4101 (2-(2,6-Dimethoxyphenoxyethyl)aminomethyl-1,4-benzodioxane hydrochloride). Receptor proteins were filtered and washed, the filters were then counted to determine [^3H]MK-912 specifically bound. Compounds were screened at 1 μM or lower, using 1% DMSO as vehicle. Biochemical assay results are presented as the percent inhibition of specific binding in Table 3.

[4] = target: T4, human recombinant serotonin (5-Hydroxytryptamine) 5-HT2A receptor (Homo sapiens, UniProt P28223); assay: Serotonin 5-HT2A radioligand binding ([3H]Ketanserin); conditions: for inhibition at 1 µM: read-out: Serotonin 5-HT2A, inhibition of ligand binding (1 μM)
T4 construct: expressed in transfected cells; host or cells: CHO-K1 cells
T4 sequence (P28223 whole entry): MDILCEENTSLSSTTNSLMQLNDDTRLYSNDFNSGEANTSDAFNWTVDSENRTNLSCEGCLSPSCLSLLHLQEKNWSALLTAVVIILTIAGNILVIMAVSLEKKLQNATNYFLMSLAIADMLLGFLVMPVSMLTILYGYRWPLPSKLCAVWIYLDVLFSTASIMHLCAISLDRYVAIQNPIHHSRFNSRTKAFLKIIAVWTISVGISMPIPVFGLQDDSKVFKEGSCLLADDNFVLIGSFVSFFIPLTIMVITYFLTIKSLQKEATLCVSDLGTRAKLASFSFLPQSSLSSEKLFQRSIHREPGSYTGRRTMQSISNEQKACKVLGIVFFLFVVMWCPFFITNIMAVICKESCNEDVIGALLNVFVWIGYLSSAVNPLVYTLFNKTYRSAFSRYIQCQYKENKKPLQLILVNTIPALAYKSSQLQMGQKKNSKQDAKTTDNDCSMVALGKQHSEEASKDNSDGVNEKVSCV
Description: To evaluate in radioligand binding assays the activity of compounds of the invention, human recombinant serotonin (5-Hydroxytryptamine) 5-HT2A receptor expressed in Chinese hamster ovary (CHO-K1) cells (Bonhaus, D. W. et al. Br. J. Pharmacol. 115:622, 1995; Saucier, C. and Albert, P. R., J. Neurochem. 68:1998, 1997) in a 50 mM Tris-HCl buffer, pH 7.4, was used. Compounds of the invention were incubated with 0.5 nM [^3H]Ketanserin for 60 minutes at 25° C. Non-specific binding was estimated in the presence of 1 μM Mianserin. Receptor proteins were filtered and washed, the filters were then counted to determine [^3H]Ketanserin specifically bound. Compounds were screened at 1 μM or lower, using 1% DMSO as vehicle. Biochemical assay results are presented as the percent inhibition of specific binding in Table 4.

SMILES | inhibition at 1 µM [1] [%] | inhibition at 1 µM [2] [%] | inhibition at 1 µM [3] [%] | inhibition at 1 µM [4] [%] | Adrenergic α1D, inhibition of ligand binding (1 μM) [1] [%] | Histamine Binding (1 μM) H1, Percentage Inhibition ([2]; 1 µM) [%] | Adrenergic α2A, inhibition of ligand binding (1 μM) [3] [%] | Serotonin 5-HT2A, inhibition of ligand binding (1 μM) ([4]; 1 µM) [%]
Cc1ccc(CCCn2c3c(c4cc(Cl)ccc42)C2CCC(C3)N2C)cn1 (centres unmarked) [Compound 38] | 50 | 96 | 33 | 13 |  |  |  | 
CN1C2CCC1c1c(n(CCCc3ccc(Cl)cc3)c3ccc(Cl)cc13)C2 (centres unmarked) [Compound 39] | 11 | 91 | 68 | 87 |  |  |  | 
Cc1ccc(C(O)Cn2c3c(c4cc(Cl)ccc42)C2CCC(C3)N2C)cn1 (centres unmarked) [Compound 52] | 33 | 91 | 46 | 21 |  |  |  | 
Cc1ccc2c(c1)c1c(n2CC(C)(O)c2ccc(Cl)cc2)CC2CCC1N2C (centres unmarked) [Compound 54] | 25 | 63 | 75 | 100 |  |  |  | 
Cc1ccc2c(c1)c1c(n2CCc2ccccc2)CC2CCCC1N2C (centres unmarked) [Compound 56] | 65 | 86 | 92 | 31 |  |  |  | 
CN1C2CCC1c1c(n(CCc3ccc(F)cc3)c3ccc(Cl)cc13)C2 (centres unmarked) [Compound 57] | 69 | 96 | 96 | 79 |  |  |  | 
CN1C2CCC1c1c(n(CCc3ccc(Cl)cc3)c3ccc(Cl)cc13)C2 (centres unmarked) [Compound 58] | 74 | 98 | 98 | 79 |  |  |  | 
CCOC(=O)CCn1c2c(c3cc(Cl)ccc31)C1CCC(C2)N1C (centres unmarked) [Compound 70, ethyl 3-(2-chloro-11-methyl-5,6,7,8,9,10-hexahydro-7,10-iminocyclohept[b]indol-5-yl)propanoate] | 26 | 65 | 3 | 16 |  |  |  | 
Cc1ccc2c(c1)c1c(n2CCc2ccc(C(F)(F)F)nc2)CC2CCC1N2C (centres unmarked) [Compound 71] | 62 | 33 | 28 | 22 | 63.0 | 46.0 | 48.0 | 34.0
CN1C2CCC1c1c(n(CCC(=O)O)c3ccc(Cl)cc13)C2 (centres unmarked) [Compound 72] | -9 | 14 | 6 | -6 |  |  |  | 
CN1C2CCC1c1c(n(CCC(N)=O)c3ccc(Cl)cc13)C2 (centres unmarked) [Compound 73] | 19 | 10 | 6 | -9 |  |  |  | 
CN1C2CCC1c1c(n(CCc3ccc(C(F)(F)F)nc3)c3cc(F)c(Cl)cc13)C2 (centres unmarked) [Compound 77] | 37 | 32 | 30 | 26 |  |  |  | 
Cc1ccc(CCn2c3c(c4cc(Cl)ccc42)C2CCC(C3)N2C)cn1 (centres unmarked) [Compound 79] | 72 | 93 | 14 | 28 |  |  |  | 
CN1C2CCC1c1c(n(CCc3cccnc3)c3ccc(Cl)cc13)C2 (centres unmarked) [Compound 80] | 54 | 94 | 21 | 33 |  |  |  | 
Cc1ccc2c(c1)c1c(n2CCc2cnc(C)nc2)CC2CCC1N2C (centres unmarked) [Compound 81] | 42 | 51 | -5 | -12 |  |  |  | 
Cc1ncc(CCn2c3c(c4cc(Cl)ccc42)C2CCC(C3)N2C)cn1 (centres unmarked) [Compound 82] | 40 | 44 | 5 | -16 |  |  |  | 
COc1ccc(CCn2c3c(c4cc(C)ccc42)C2CCC(C3)N2C)cc1 (centres unmarked) [Compound 83] | 80 | 98 | 77 | 71 |  |  |  | 
COc1ccc(CCn2c3c(c4cc(Cl)ccc42)C2CCC(C3)N2C)cc1 (centres unmarked) [Compound 84] | 19 | 83 | 76 | 77 |  |  |  | 
Cc1ccc2c(c1)c1c(n2CCCc2ccc(Cl)cc2)CC2CCC1N2C (centres unmarked) [Compound 85] | 43 | 99 | 73 | 95 |  |  |  | 
Cc1ccc2c(c1)c1c(n2CCc2cccnc2)CC2CCC1N2C (centres unmarked) [Compound 86] | 87 | 99 | 63 | 64 |  |  |  | 
CN1C2CCC1c1c(n(CCc3cncc(Cl)c3)c3ccc(Cl)cc13)C2 (centres unmarked) [Compound 87] | 70 | 96 | 21 | 51 |  |  |  | 
Cc1ccc2c(c1)c1c(n2CCc2cncc(Cl)c2)CC2CCC1N2C (centres unmarked) [Compound 88] | 73 | 95 | 32 | 55 |  |  |  | 
Cc1cncc(CCn2c3c(c4cc(Cl)ccc42)C2CCC(C3)N2C)c1 (centres unmarked) [Compound 89] | 44 | 92 | 5 | 27 |  |  |  | 
Cc1cncc(CCn2c3c(c4cc(C)ccc42)C2CCC(C3)N2C)c1 (centres unmarked) [Compound 90] | 40 | 93 | 26 | 30 |  |  |  | 
Cc1ccc2c(c1)c1c(n2CC(O)c2ccc(C)nc2)CC2CCC1N2C (centres unmarked) [Compound 91] | 24 | 51 | 29 | 2 |  |  |  | 

Source: US8546381B2, “Bridged heterocyclic compounds and methods of use” (Medivation Technologies, Inc., priority 2008, dated 2013)
